In patent US6486197B1, “Substance ft-0554 and process for producing the same” (The Kitasato Institute, priority 1997, dated 2002):

Legend:
Candida albicans KF1 = test: Paper disk antimicrobial activity; assay type: cell-based; set-up: unit not given here; details: 1 mg/ml 10 μl on 6 mm paper disk, 24 hours
[1] = system: Mucor racemosus KF223 (IFO 4581); test: Paper disk antimicrobial activity; assay type: cell-based; set-up: unit not given here; details: 1 mg/ml 10 μl on 6 mm paper disk, 24 hours

Compound: CCC(C)/C=C/C=C(\C)CC(C)/C=C/C=C/C1OC(=O)C(O)C2OC12C (centres unmarked) [FT-0554 substance]
- inhibition zone diameter (Candida albicans KF1): 12
- inhibition zone diameter [1]: 10
